In series [1] the test system is NSCLC patients with RET-alterations. To be noted: Subbiah et al. 2018; cited from earlier work.
Series [2] deals with RET-driven models. To be noted: several RET-driven models; cited from earlier work.
For series [3], the system named is RET, ERK1/2 and AKT phosphorylation in PC9^CCDC6-RET cells. The series can be described thus: Western blot of downstream signaling. It is filed as cell-based. To be noted: 6 hours. On the procedure: FIG. 4A is a western blot for PC9^EV and PC9^CCDC6-RET cells treated with 100 nM afatinib, 1 μM osimertinib, Compound 1, or combinations thereof for 6 hours and harvested for western blotting with the antibodies.
FIG. 5A is a western blot for PC^9V and PC9^CCDC6-RET cells treated with 100 nM afatinib, 1 μM osimertinib, cabozanitinib, or combinations thereof for 6 hours and harvested for western blot analysis.
(§1) Afatinib, osimertinib, and cabozantinib were purchased from Selleck Chemicals and resuspended in DMSO. Phospho-EGFR (Y1068), EGFR, pBRAF (Ser445), RET, pAKT (Ser473), AKT, pMEK1/2 (Ser217/221), MEK1/2, pERK1/2 (Thr202/204), ERK1/2, and Actin antibodies were purchased from Cell Signaling Technology. pRET (Y1062) antibody was obtained from Abcam.
(In general: In western blotting, separated proteins are transferred to a membrane and probed.)

For series [4], the system named is RET oncogenic mutants. The conditions noted are these: cellular systems; cited from earlier work.
Series [5] concerns MGH134 parental cells (EV). The series can be described thus: Cell proliferation (CellTiter-Glo). It is filed as cell-based. To be noted: 1 μM osimertinib, over five days.
Series [6] has as its system PC9 parental cells (EV). Nature of the series: Cell proliferation (CellTiter-Glo). In kind it is cell-based. To be noted: 1 μM osimertinib, over five days. On the technique in general: In ATP-based viability assays light output follows the ATP content of the culture.
Series [7] has as its system MGH134^CCDC6-RET cells (EGFR L858R/T790M). Here is the method: (§2) PC9 and MGH134 cells expressing the CCDC6-RET gene fusion or empty vector (EV) were treated with 1 μM osimertinib or vehicle (VEH) and cell proliferation determined over the course of five days (ratio compared to the beginning of treatment). Data shown are the mean±s.e.m. of three independent biological replicates.
(§3) Data are shown as a percentage of vehicle treated control and are the mean±s.e.m of three independent biological replicates.
(§4) For drug dose-response assays, cells were seeded into 96-well plates 24 hours before addition of drug. Cell proliferation was determined by CellTiter-Glo assay (Promega) 72-120 hours after adding drug, using standard protocols. For time-course experiments, multiple plates were seeded and drugged in identical fashion, and at the indicated time points, the plates were frozen at −80° C.; all plates in an experiment were developed with CellTiter-Glo simultaneously. Luminescence was measured with SpectraMax i3x Multi-Mode Microplate Reader (Molecular Devices).
(§5) To determine whether CCDC6-RET expression is sufficient to cause acquired drug resistance, CCDC6-RET fusion expressing cell line models were generated by lentiviral infection of PC9 (EGFR del19) and MGH134 (EGFR L858R/T790M) cells (FIG. 2).

Series [8] relates to PC9^CCDC6-RET cells (EGFR del19). The series can be described thus: Cell proliferation / viability (CellTiter-Glo). In kind it is cell-based. On the procedure: as §2, §3, §3, §4, §5
The test system of series [9] is RET, ERK1/2 and AKT phosphorylation in MGH134^CCDC6-RET cells. Nature of the series: Western blot of downstream signaling. In kind it is cell-based. The conditions noted are these: EGFR inhibitor alone (1 μM osimertinib), 6 hours. On the procedure: FIG. 4B is a western blot for MGH134^EV and MGH134^CCDC6-RET cells treated with 1 μM osimertinib, cabozantinib, and Compound 1 or combinations thereof for 6 hours and harvested for western blotting with the indicated antibodies.
as §1

[10] abbreviates: 1 μM osimertinib, over five days.

On to `CO[C@]1(C(=O)N[C@@H](C)c2ccc(-n3cc(F)cn3)nc2)CC[C@H](c2nc(C)cc(Nc3cc(C)[nH]n3)n2)CC1` [Compound 1, (1S,4R)—N—((S)-1-(6-(4-fluoro-1H-pyrazol-1-yl)pyridine-3-yl)ethyl)-1-methoxy-4-(4-methyl-6-((5-methyl-1H-pyrazol-3-yl)amino)pyrimidin-2-yl)cyclohexanecarboxamide], for which, in series [1], the clinical responses result is reported as “durable clinical responses” and the off-target toxicity result is recorded as “without notable off-target toxicity”. Besides, in series [2], the antitumor efficacy entry is “dose-dependent antitumor efficacy”. Moreover, in series [3] (Compound 1 alone), the RET phosphorylation result was “suppressed” and the “downstream ERK or AKT phosphorylation” value is “did not decrease”. In series [4], the “potency of inhibition of kinase activity” value was “low nanomolar potency”.
`C=CC(=O)Nc1cc(Nc2nccc(-c3cn(C)c4ccccc34)n2)c(OC)cc1N(C)CCN(C)C` [osimertinib]: the cell proliferation entry is “net decrease in cell viability” in series [5], “net decrease in cell viability” in series [6], “continued to proliferate” in series [7] (setting [10]) and “continued to proliferate” in series [8] (setting [10]). In addition, the proliferation rate result in [7] (1 μM osimertinib vs vehicle) and in series [8] (1 μM osimertinib vs vehicle) was “decreased” each time. In addition, the “RET, ERK1/2, and AKT phosphorylation” value in series [9] and in [3] (100 nM afatinib or 1 μM osimertinib alone) was “retained” in each case.
